In patent US20090291929A1, “STEROIDS HAVING A MIXED […] PRO[…]” (N.V. ORGANON, priority 2005, published 2009):
Like-named read-outs stand apart in the source and are kept apart here.

Experiments:
Oral activity = format: in vivo; conditions: found by applicant ("We have found")
[1] = target: T1, human androgen receptor (hAR) (Homo sapiens, UniProt P10275); experiment: Transactivative androgen agonistic activity in CHO cells transfected with hAR, MMTV and luciferase; format: cell-based; conditions: MMTV-luciferase, incubation 16 h, 37° C.
T1 construct: expressed in transfected cells; host or cells: Chinese hamster ovary cells (CHO)
T1 sequence (P10275 1-920): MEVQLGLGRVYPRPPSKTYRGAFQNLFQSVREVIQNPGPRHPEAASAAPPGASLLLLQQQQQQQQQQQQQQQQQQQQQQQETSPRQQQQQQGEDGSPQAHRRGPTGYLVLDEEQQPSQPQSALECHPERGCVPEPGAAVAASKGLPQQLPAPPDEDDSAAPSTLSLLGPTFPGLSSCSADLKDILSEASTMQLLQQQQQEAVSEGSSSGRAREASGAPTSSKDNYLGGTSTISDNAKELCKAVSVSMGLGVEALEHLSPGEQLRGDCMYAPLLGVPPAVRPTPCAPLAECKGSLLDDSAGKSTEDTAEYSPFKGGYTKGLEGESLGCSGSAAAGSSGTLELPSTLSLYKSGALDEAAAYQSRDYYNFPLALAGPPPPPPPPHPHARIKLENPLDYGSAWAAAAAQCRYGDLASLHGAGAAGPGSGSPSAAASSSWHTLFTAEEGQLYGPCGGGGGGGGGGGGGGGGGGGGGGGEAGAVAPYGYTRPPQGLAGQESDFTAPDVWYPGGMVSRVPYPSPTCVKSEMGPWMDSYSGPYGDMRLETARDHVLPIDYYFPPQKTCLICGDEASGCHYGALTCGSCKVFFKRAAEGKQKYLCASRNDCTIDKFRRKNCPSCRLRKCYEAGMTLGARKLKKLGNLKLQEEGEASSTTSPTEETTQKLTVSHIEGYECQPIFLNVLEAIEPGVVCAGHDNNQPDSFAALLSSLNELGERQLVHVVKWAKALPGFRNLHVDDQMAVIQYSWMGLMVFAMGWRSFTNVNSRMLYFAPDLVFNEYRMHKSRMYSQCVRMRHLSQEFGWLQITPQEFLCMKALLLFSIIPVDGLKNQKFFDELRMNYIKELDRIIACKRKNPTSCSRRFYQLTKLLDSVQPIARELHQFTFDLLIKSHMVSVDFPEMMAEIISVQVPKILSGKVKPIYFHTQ
Experimental: The transactivative androgen agonistic activity of the compounds of the invention was measured in Chinese hamster ovary cells (CHO) transfected with the human androgen receptor (hAR), in combination with a mouse mammary tumor virus (MMTV), and luciferase receptor gene (incubation time 16 h, temperature 37° C.) and compared with the activity of 5α-dihydrotestosterone [according to the procedure described by Schoonen, W. G. E. J. et al., Analyt. Biochem. 261, 222-224 (1998)].

[2] = target: T2, human progesterone receptor B (hPRB) (Homo sapiens, UniProt P06401); experiment: Transactivative progestagenic agonistic activity in CHO cells transfected with hPRB, MMTV and luciferase; format: cell-based; conditions: MMTV-luciferase, incubation 16 h, 37° C.
T2 construct: expressed in transfected cells; host or cells: Chinese hamster ovary cells (CHO)
T2 sequence (P06401 1-933): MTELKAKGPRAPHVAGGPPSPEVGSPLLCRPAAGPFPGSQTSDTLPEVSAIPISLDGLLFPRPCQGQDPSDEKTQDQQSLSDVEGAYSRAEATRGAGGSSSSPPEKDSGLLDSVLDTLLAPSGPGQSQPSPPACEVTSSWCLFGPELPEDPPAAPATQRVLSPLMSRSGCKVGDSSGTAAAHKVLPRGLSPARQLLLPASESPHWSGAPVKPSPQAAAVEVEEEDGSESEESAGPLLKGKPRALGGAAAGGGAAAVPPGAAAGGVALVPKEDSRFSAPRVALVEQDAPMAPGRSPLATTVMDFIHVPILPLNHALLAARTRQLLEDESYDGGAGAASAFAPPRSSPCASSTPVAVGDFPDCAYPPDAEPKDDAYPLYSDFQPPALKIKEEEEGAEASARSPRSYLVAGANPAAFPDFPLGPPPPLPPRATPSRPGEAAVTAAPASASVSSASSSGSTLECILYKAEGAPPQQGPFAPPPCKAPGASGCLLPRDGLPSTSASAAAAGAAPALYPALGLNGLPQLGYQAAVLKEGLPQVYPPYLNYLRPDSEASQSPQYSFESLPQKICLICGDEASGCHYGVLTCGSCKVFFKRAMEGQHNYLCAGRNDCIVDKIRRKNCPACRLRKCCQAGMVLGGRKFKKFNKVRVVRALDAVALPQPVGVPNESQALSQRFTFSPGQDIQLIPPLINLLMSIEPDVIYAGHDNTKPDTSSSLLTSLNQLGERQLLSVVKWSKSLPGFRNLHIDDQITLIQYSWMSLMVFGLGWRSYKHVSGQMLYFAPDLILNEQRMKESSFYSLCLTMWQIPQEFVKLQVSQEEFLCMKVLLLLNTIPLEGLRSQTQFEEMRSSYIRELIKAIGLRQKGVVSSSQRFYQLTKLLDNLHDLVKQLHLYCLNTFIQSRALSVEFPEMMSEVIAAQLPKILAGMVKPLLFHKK
Experimental: The transactivative progestagenic agonistic activity of the compounds of the invention was measured in Chinese hamster ovary cells (CHO) transfected with the human progesterone receptor B (hPRB), in combination with a mouse mammary tumor virus (MMTV), and luciferase receptor gene (incubation time 16 h, temperature 37° C.) and compared with the activity of (16α)-16-ethyl-21-hydroxy-19-norpregn-4-ene-3,20-dione [according to the procedure described by Schoonen, W. G. E. J. et al., Analyt. Biochem. 261, 222-224 (1998)].

[3] = Liver safety: BSP retention assay in male castrated rabbits; format: in vivo, New Zealand White rabbits; conditions: 10 mg/kg/day per oral for 7 days, BSP 15 mg/kg intravenous
Experimental: The primary aim of this test was the evaluation of liver function, by measuring the clearance of a single, intravenously injected, dose of bromosulfophthalein (BSP) after 7 days (once daily) per oral treatment of male castrated rabbits with a compound of the invention.
Briefly, this test is performed in mature male castrated New Zealand White rabbits. At least two weeks after castration animals are treated for seven days (once daily) with tablets, or arachis oil containing 5% (v/v) ethanol, resulting in a dose of 10 mg/kg/day of a test compound. Twenty-four hours after the last administration the rabbits were light sedated with 0.15 ml Hypnorm intramuscular, BSP was injected (15 mg/kg intravenous, dissolved in 5% (w/v) mannitol/H2O). Blood is collected at 5, 10, 15 and 20 minutes, BSP content in plasma is determined with a spectrophotometer. The t½ of BSP elimination from the blood is calculated from the obtained data.

[4] = Prevention of trabecular bone mineral density (BMD) loss; format: in vivo; conditions: found by applicant
Source text: Biological activity of compounds according to the invention can be observed in vivo in the rat serum LH suppression test and in the rat anti-steoporosis test measuring restoration of trabecular bone mineral density. Anabolic effect can be observed on musculus levator ani. In the monkey activity can be observed in the testosterone suppression test. In vivo liver safety can be evaluated in the rabbit upon repeated administration of a compound according to the invention.

[5] = from literature (Seaman 1985); cited from earlier work
[6] = from literature; cited from earlier work
Liver toxicity = conditions: stated without citation
[7] = vehicle Arachis oil + 5% ethanol

SMILES | Androgen activity: Relative agonistic activity (%) versus 5α-dihydrotestosterone [1] | Progestagen activity: Relative agonistic activity (%) versus (16α)-16-ethyl-21-hydroxy-19-norpregn-4-ene-3,20-dione [2] | other results
CCC12CCC3C4CCC(=O)C=C4CCC3C1CCCC2O [(17aβ)-13-ethyl-17a-hydroxy-D-homogon-4-en-3-one] | – | – | Oral activity (Oral activity): not orally active
CCC1CC2=CC(=O)CCC2C2CCC3(C)C(=CCCC3O)C12 [Compound of Example 2, (7α,17aβ)-7-Ethyl-17a-hydroxy-D-homoestra-4,14-dien-3-one] | 30.5% | 0.47% | –
C#CC1(O)CCC=C2C3CCC4=CC(=O)CCC4C3CCC21C [Compound of Example 9, (17aα)-17a-Hydroxy-D-homo-19-norpregna-4,14-dien-20-yn-3-one] | 12.3% | 16.0% | –
CC1CC2=CC(=O)CCC2C2CCC3(C)C(=CCCC3(C)O)C12 [Compound of Example 4, (7α,17aβ)-17a-Hydroxy-7,17a-dimethyl-D-homoestra-4,14-dien-3-one] | 106.9% | 133.7% | T½ BSP [3, 7]: 4.9 min; T½ BSP ([3]; vehicle Tablet): 5.5 min
CCC1(O)CCC=C2C3C(C)CC4=CC(=O)CCC4C3CCC21C [Compound of Example 6, (7α,17aα)-17a-Hydroxy-7-methyl-D-homo-19-norpregna-4,14-dien-3-one] | 13.2% | 91.2% | –
CCC12CCC3C4CCC(=O)C=C4CCC3C1CCCC2(C)O [(17aβ)-13-ethyl-17a-hydroxy-17a-methyl-D-homogon-4-en-3-one] | – | – | Oral activity (Oral activity): not orally active
CC1CC2=CC(=O)CCC2C2CCC3(C)C(O)CCCC3C12 [7α-Methyl-19-nor-D-homotestosterone] | – | – | Oral activity (Oral activity): not an orally active compound
C[C@]1(O)CCC[C@H]2[C@@H]3CCC4=CC(=O)CC[C@@H]4[C@H]3CC[C@@]21C [17aα-Methyl-19-nor-D-homotestosterone] | – | – | Oral activity (Oral activity): low activity upon oral administration; Prevention of trabecular bone mineral density (BMD) loss [4]: unable to prevent trabecular bone mineral density (BMD) loss
C[C@@H]1CC2=CC(=O)CC[C@@H]2[C@H]2CC[C@@]3(C)[C@@H](CC[C@]3(C)O)[C@@H]21 [7α,17α-dimethylnandrolone] | – | – | Liver toxicity [5]: severe liver toxicity; Oral activity [6]: orally active
CC1CC2=CC(O)CCC2C2CCC3(C)C(=CCCC3(C)O)C12 [Compound of Example 5, (3β,7α,17aβ)-7,17a-Dimethyl-D-homoestra-4,14-dien-3,17a-diol] | 36.2% | 6.4% | –
C[C@@H]1CC2=CC(=O)CC[C@@H]2[C@H]2CC[C@@]3(C)C(=CC[C@]3(C)O)[C@@H]21 [Reference compound, (7α,17β)-17-Hydroxy-7,17-dimethylestra-4,14-dien-3-one] | – | – | Liver toxicity (Liver toxicity): severe liver toxicity
CC1(O)CCC=C2C3CCC4=CC(=O)CCC4C3CCC21C [Compound of Example 8, (17aβ)-17a-Hydroxy-17a-methyl-D-homoestra-4,14-dien-3-one] | 157.9% | 228.4% | –
C[C@]12CCC(=O)C=C1CC[C@@H]1[C@@H]2CC[C@@]2(C)[C@H]1CC[C@]2(C)O [17α-Methyltestosterone, reference compound] | – | – | T½ BSP [3, 7]: 5.6 min; T½ BSP ([3]; vehicle Tablet): 6.0 min
CC1CC2=CC(=O)CCC2C2CCC3(C)C(=CCC(C)C3O)C12 [Compound of Example 3, (7α,17α,17aβ)-17a-Hydroxy-7,17-dimethyl-D-homoestra-4,14-dien-3-one] | 10.2% | 47.4% | –
